Entries after “also recorded” stand apart in the source; their conditions may differ.
Columns and labels:
[1] = tested on: IL-4 secretion by T cells; test: IL-4 ELISpot of spleen cells from immunized mice; assay type: in vivo, SJL/J mice; parameters: key to IL-4: −: negative; +/−: very weak; +: weak; ++: moderate; +++: strong; settings: for IL-4 responses: peptide conjugated to reduced mannan, two injections
Protocol: (§1) Female 6-8 week old SJL/J mice used in all experiments, were purchased from Walter and Eliza Hall Institute (VIC Australia) and housed at the Biological Research Laboratory at Burnet Institute at Austin, Heidelberg, Australia. SJL/J mice were immunized twice on days 0, 14 intradermally (base of tail) with 50 μg MBP83-99 peptide analogue-KLH-reduced mannan.
(§2) ELISpot analyses specific T cell responses to antigens by detecting the secretion of specific cytokines. Spleen cells from immunized SJL/J mice were isolated 14 days after immunization and assessed by ELISpot for IFN-γ, IL-4 or IL-10 secretion by T cells. IFN-γ ELISpot assay was performed on MultiScreen-IP Filter Plate (MAIP S4510) with hydrophobic PVDF filters (Millipore, UK) while IL-4 and IL-10 ELISpot was performed on MultiScreen-HA Filter Plate (MAHA S4510) with mixed cellulose esters filters (Millipore, UK). MAIP S4510 plates were pre-wet with 50 μl of 70% ethanol, washed 5 times with 200 μl sterile PBS and coated with 70 μl of 5 μg/ml anti-IFN-γ capture antibody, AN18 (Mabtech, Australia) in PBS and left to incubate at 4° C. O/N. While 70 μl of 5 μg/ml anti-IL-4 and anti-IL-10 capture antibody (Mabtech, Australia) was added directly to MAHA S4510 plates and incubated at 4° C. O/N without 70% ethanol treatment. Following 5 washes with PBS, plates were blocked by adding 200 μl of culture media (supplemented with 2.5% FCS) and incubated for 2 hours at 37° C. The blocking media was discarded and 10 μg/ml recall peptides (MBP83-99 peptide analogues not conjugated to KLH-reduced mannan) were added into each defined well. Con A (1.0 μg/ml; IL-4 and IFN-γ) or LPS (1.0 μg/ml; IL-10) were used as an internal positive controls and no peptide was used as negative control. Triplicate wells were set up for each condition. 5×10^5 spleen cells in 100 μl culture media were seeded into each well and incubated for 18 hours for IFN-γ, 24 hours for IL-4 and 48 hours for IL-10 at 37° C. Plates were washed 5 times PBS/0.05% Tween 20 and 5 times PBS and incubated for 2 hours at RT with anti-murine IFN-γ, IL-4 or IL-10 monoclonal antibody-biotin. Plates were washed and streptavidin-ALP was added at 1.0 μg/ml and incubated for 2.0 hours at RT. Spots of activity were detected using a colorimetric AP kit (Biorad, Hercules, Calif. USA) and counted using an AID ELISpot plate reader (Autoimmun Diagnostika GmbH, Germany). Data are presented as mean spot forming units (sfu) per 0.5×10^6 cells +/−standard error of the mean (SEM).
MBP87-99, [R^91, A^96]MBP87-99 or [A^91, A^96]MBP87-99 peptides were dissolved in PBS and emulsified in an equal volume of complete Freund's adjuvant (CFA) which contained 1.0 mg/ml of heat killed Mycobacterium tuberculosis H37RA (Sigma, Victoria, Australia). SJL/J mice were given one subcutaneous injection containing 50 μg peptide into the base of tail.
SJL/J mice were immunized twice on days 0 and 14 intradermally (base of tail) with 50 μg MBP87-99-KLH-reduced mannan, [R^91, A^96]MBP87-99-KLH-reduced mannan or [A^91, A^96]MBP87-99-KLH-reduced mannan conjugates.
ELISpot detects specific T cell responses to antigens by measuring the secretion of specific cytokines from individual cells. Spleen cells from immunized SJL/J mice were isolated 28 days after CFA immunization or 14 days after the last immunization with reduced mannan-peptides and assessed by ELISpot for IFN-γ and IL-4 secretion by T cells. IFN-γ ELISpot assay was performed on MultiScreen-IP Filter Plate (MAIP S4510) with hydrophobic PVDF filters (Millipore, UK), while IL-4 ELISpot assays were performed on MultiScreen-HA Filter Plate (MAHA S4510) with mixed cellulose esters filters (Millipore, UK). MAIP S4510 plates were pre-weted with 50 μl of 70% ethanol, washed 5 times with 200 μl of sterile phosphate-buffered saline (PBS) and coated with 70 μl of 5 μg/ml anti-IFN-γ capture antibody, AN18 (Mabtech, Australia) in PBS and incubated O/N at 4° C. […]

[2] = tested on: native bovine MBP protein; test: ELISA cross reaction of sera with native MBP protein; assay type: in vivo; parameters: key to Cross reaction with native MBP / Ab Cross reaction with native MBP: −: negative; +/−: very weak; +: weak; ++: moderate; +++: strong; settings: for Ab Cross reaction with native MBP: Table 3, peptide analogues emulsified in complete Freund's adjuvant; for cross reaction of sera with native MBP protein (in words): peptide conjugated to reduced mannan, 1/200 and 1/1,600 sera dilution; for Cross reaction with native MBP: Table 2, peptide analogues conjugated to reduced mannan-KLH
Protocol: Blood was collected and sera isolated from mice prior to and 2 weeks after immunization. MBP83-99 peptides conjugated to BSA were coated onto polyvinyl chloride (PVC) microtiter plates at 10 μg/ml or with 2.5 μg/ml native MBP bovine protein in 0.2 M NaHCO3 buffer, pH 9.6, overnight at 4′C and non-specific binding was blocked with 2% BSA for 1.0 hour at room temperature. After washing (0.05% Tween 20/PBS), serial dilutions of sera were added and incubated for a further 2.0 hours at room temperature. The plates were washed and bound antibody was detected using HRP-conjugated sheep anti-mouse antibody (1:1000 in PBS) (Amersham, UK) and developed using 2,2″-azino-di(3-ethylbenzthiazoline) sulphonate (ABTS) (Sigma, UK). Absorption at 405 nm was recorded using an ELISA microplate reader.

[3] = tested on: IL-10 secretion by T cells; test: IL-10 ELISpot of spleen cells from immunized mice; assay type: in vivo, SJL/J mice; parameters: key to IL-10: −: negative; +/−: very weak; +: weak; ++: moderate; +++: strong; settings: for IL-10: Table 2, peptide analogues conjugated to reduced mannan-KLH; for IL-10 production by T cells (in words): peptide conjugated to reduced mannan, two injections
Protocol: as §1, §2

[4] = 50 μg peptide conjugated to reduced mannan, two intradermal injections, spleen cells 14 days post-immunization
[5] = 50 μg peptide emulsified in CFA, one injection, spleen cells 28 days
[6] = Table 3, peptide analogues emulsified in complete Freund's adjuvant
[7] = Table 2, peptide analogues conjugated to reduced mannan-KLH

CC[C@H](C)[C@@H]1NC(=O)[C@H](CC(N)=O)NC(=O)[C@H](CCCCN)NC(=O)[C@H](Cc2ccccc2)NC(=O)[C@H](Cc2ccccc2)NC(=O)[C@H](Cc2c[nH]cn2)NC(=O)[C@H](C(C)C)NC(=O)[C@H](C(C)C)NC(=O)[C@@H]2CCCN2C(=O)[C@H](CC(N)=O)NC(=O)[C@H](CCC(=O)O)NC(=O)[C@@H]2CCCN2C(=O)[C@H]([C@@H](C)O)NC(=O)[C@H](CCCNC(=N)N)NC(=O)[C@@H]2CCCN2C(=O)[C@H]([C@@H](C)O)NC(=O)[C@H](C(C)C)NC1=O [cyclo(83-99)MBP83-99, cyclo(83-99)E N P V V H F F K N I V T P R T P]
IL-4 secreting T cells (in words) [1, 4]: did not stimulate; also recorded: weak or no | IL-4 secreting T cells (in words) [1, 5]: induced IL-4 | IL-4 [1, 6]: − | Ab Cross reaction with native MBP [2]: − | cross reaction of sera with native MBP protein (in words) [2]: highly cross reacted

E N P V V H F F A N I V T P R T P (ENPVVHFFANIVTPRTP) [[A^91]MBP83-99]
IL-4 secreting T cells (in words) [1, 4]: high levels | IL-4 secreting T cells (in words) [1, 5]: not able to generate IL-4 | IL-4 [1, 7]: +++ | IL-4 [1, 6]: − | IL-4 responses [1]: up to 600 SFU/0.5 million cells | Cross reaction with native MBP [2]: + | Ab Cross reaction with native MBP [2]: ++ | cross reaction of sera with native MBP protein (in words) [2]: reacted moderately; also recorded: cross reacted weakly

E N P V V H F F E N I V T P R T P (ENPVVHFFENIVTPRTP) [[E^91]MBP83-99]
IL-4 secreting T cells (in words) [1, 4]: high levels | IL-4 [1, 7]: +++ | IL-4 [1, 6]: − | Cross reaction with native MBP [2]: + | Ab Cross reaction with native MBP [2]: − | cross reaction of sera with native MBP protein (in words) [2]: reacted moderately; also recorded: cross reacted weakly

E N P V V H F F F N I V T P R T P (ENPVVHFFFNIVTPRTP) [[F^91]MBP83-99]
IL-4 secreting T cells (in words) [1, 4]: high levels; also recorded: induced | IL-4 [1, 7]: +++ | IL-4 [1, 6]: − | IL-10 [3]: ++ | IL-10 production by T cells (in words) [3]: moderate levels; also recorded: induced | Cross reaction with native MBP [2]: − | Ab Cross reaction with native MBP [2]: − | cross reaction of sera with native MBP protein (in words) [2]: did not react

E N P V V H F F K N I V T P R T P (ENPVVHFFKNIVTPRTP) [MBP83-99, reference compound]
IL-4 secreting T cells (in words) [1, 4]: did not stimulate; also recorded: weak or no; also recorded: low levels | IL-4 secreting T cells (in words) [1, 5]: did not induce IL-4 | IL-4 [1, 7]: − | IL-4 [1, 6]: − | Cross reaction with native MBP [2]: +++ | Ab Cross reaction with native MBP [2]: − | cross reaction of sera with native MBP protein (in words) [2]: highly cross reacted; also recorded: cross reactive

E N P V V H F F R N I V T A R T P (ENPVVHFFRNIVTARTP) [[R^91, A^96]MBP83-99]
IL-4 secreting T cells (in words) [1, 4]: high levels | IL-4 [1, 7]: +++ | IL-4 [1, 6]: ++ | Cross reaction with native MBP [2]: +++ | Ab Cross reaction with native MBP [2]: − | cross reaction of sera with native MBP protein (in words) [2]: cross reactive | cross reaction of sera with native MBP protein (in words) ([2]; listed as [A^91, R^96]MBP83-99): highly cross reacted

E N P V V H F F Y N I V T P R T P (ENPVVHFFYNIVTPRTP) [[Y^91]MBP83-99]
IL-4 secreting T cells (in words) [1, 4]: high levels | IL-4 [1, 7]: +++ | IL-4 [1, 6]: − | IL-10 [3]: ++ | IL-10 production by T cells (in words) [3]: moderate levels | Cross reaction with native MBP [2]: − | Ab Cross reaction with native MBP [2]: − | cross reaction of sera with native MBP protein (in words) [2]: did not cross react

cyclo(83-99)E N P V V H F F A N I V T P R T P (ENPVVHFFANIVTPRTP; cyclised or stapled) [cyclo(83-99)[A^91]MBP83-99]
IL-4 secreting T cells (in words) [1, 4]: negative | IL-4 secreting T cells (in words) [1, 5]: did generate IL-4 | IL-4 [1, 7]: − | IL-4 [1, 6]: − | IL-4 responses [1]: up to 70 SFU/0.5 million cells | Cross reaction with native MBP [2]: + | Ab Cross reaction with native MBP [2]: − | cross reaction of sera with native MBP protein (in words) [2]: reacted moderately

Source: patent US20110142866A1, “PEPTIDE ANALOGUES AND CONJUGATES THEREOF” (Eldrug S.A., priority 2007, published 2011)
